These results are taken from patent US4870183A, “Novel amino acid derivatives” (priority 1986, dated 1989).

Test [1] concerns the target T1, renin in human high renin plasma (Homo sapiens, UniProt P00797).
T1 construct: from tissue; host or cells: human high renin plasma
T1 sequence (P00797 67-406): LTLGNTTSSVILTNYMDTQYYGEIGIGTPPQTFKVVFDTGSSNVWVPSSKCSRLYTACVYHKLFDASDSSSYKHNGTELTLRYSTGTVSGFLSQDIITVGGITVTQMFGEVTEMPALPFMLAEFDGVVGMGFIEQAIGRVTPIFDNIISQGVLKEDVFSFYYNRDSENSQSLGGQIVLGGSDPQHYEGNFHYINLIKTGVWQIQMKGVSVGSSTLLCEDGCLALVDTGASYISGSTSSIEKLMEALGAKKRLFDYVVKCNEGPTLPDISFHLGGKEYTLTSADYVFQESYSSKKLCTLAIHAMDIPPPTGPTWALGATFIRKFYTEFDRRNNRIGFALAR
The test is described as follows: Renin inhibitory effect in a human high renin plasma. It is filed as biochemical. On the procedure:
Renin Inhibitory Effect in a Human High Renin Plasma
Two hundred μl of the mixture was placed on an ice bath, at 4° C., and remaining mixture (800 μl) was incubated for 60 minutes at 37° C. on a water bath. Two hundred μl of the incubated remaining mixture was chilled immediately on an ice bath, and the amount (A) of angiotensin I produced was determined by radioimmunoassay using renin riabead kit (DAINABOT).
The amount (B) of angiotensin I in the mixture placed on an ice bath at 4° C. was also determined by radioimmunoassay.
As a control, the same procedure as above was carried out by using 100 μl of dimethyl sulfoxide alone in place of 100 μl of dimethyl sulfoxide solution containing an amino acid compound of the present invention.
The net amount was estimated as the difference between A and B.
The inhibitory effect was calculated by the following equation. [formula]

The target in test [2] is T2, plasma renin activity (Callithrix jacchus, UniProt Q9TSZ1).
T2 construct: from tissue; host or cells: plasma of furosemide-treated conscious male common marmosets
T2 sequence (Q9TSZ1 61-400): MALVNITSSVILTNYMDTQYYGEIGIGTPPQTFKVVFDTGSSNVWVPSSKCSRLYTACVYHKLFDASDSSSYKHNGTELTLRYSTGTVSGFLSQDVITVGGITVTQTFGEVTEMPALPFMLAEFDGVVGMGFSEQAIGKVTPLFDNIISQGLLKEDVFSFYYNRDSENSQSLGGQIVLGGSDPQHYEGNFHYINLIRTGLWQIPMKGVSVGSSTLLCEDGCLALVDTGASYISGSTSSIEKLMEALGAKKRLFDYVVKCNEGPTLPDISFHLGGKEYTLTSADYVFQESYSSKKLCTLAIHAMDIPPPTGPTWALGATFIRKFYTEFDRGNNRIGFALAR
The test is described as follows: Renin inhibitory effect in plasma on common marmoset (plasma renin activity after oral dosing). Particulars: 30 mg/kg oral single dose, furosemide-treated conscious marmosets, control 43.16. The test is classed as in vivo. How it is done:
Renin Inhibitory Effect in Plasma on Common Marmoset
The experiment was carried out by using common marmoset as described in K. G. Hofbauer et al., CLINICAL AND EXPERIMENTAL HYPERTENSION, Vol. A5, Nos. 7 & 8 (1983), pages 1237-1247.
Furosemide was administered orally three times to common marmoset having a lower salt diet at 15 mg per kilogram per day every other day to create a high renin state. The experiment was carried out on the third day after the last furosemide dose.
Three conscious male marmosets weighing 310-460 g were placed into small restraining chair, and by using a catheter into the femoral artery, blood collecting was carried out at intervals of 60, 180 and 300 minutes.
Collected blood samples were centrifuged at 1200×g for 15 minutes at 4° C. Two hundred μl of the plasma was taken up and incubated for 60 minutes at 37° C., and the plasma renin activity was measured by radioimmunoassay using renin riabead kit (DAINABOT).
Compound A of this invention was dissolved in dilute hydrochloric acid, and administered orally at single dose of 30 mg/kg using catheter.

In test [3] the target is T3, human renin (Homo sapiens, UniProt P00797).
T3 sequence (P00797 67-406): T1 sequence (P00797 67-406)
The test is described as follows: Inhibitory effect on human renin-sheep renin substrate reaction system in vitro. It is filed as biochemical. On the procedure:
Inhibitory effect on human renin-sheep renin substrate reaction system in vitro
The mixture was incubated for 15 minutes on a water bath at 37° C., and the reaction mixture was allowed to stand for 5 minutes on a water bath at 100° C. to stop the reaction. After cooling, 200 μl of the solution was taken up and the amount of angiotensin I produced by the addition of renin was determined by radioimmunoassay using renin riabead kit (DAINABOT).
The inhibitory effect was calculated by the following equation.
As a control, the same procedure as above was carried out by using 50 μl of dimethyl sulfoxide alone in place of the 50 μl of dimethyl sulfoxide solution containing an amino acid compound of the present invention. [formula]

A short description of test [4]: Hypotensive effect in marmoset (tail cuff blood pressure, high renin state). Particulars: 30 mg/kg oral, conscious high renin marmoset, control 99.7. The test is classed as in vivo, common marmoset. On the procedure:
Hypotensive Effect in Marmoset
The experiment was carried out by using common marmoset as described in K. G. Hofbauer et al., Clinical and Experimental Hypertension, Vol. A5, Nos. 7 & 8 pages 1237-1247.
Furosemide was administered orally three times to common marmoset at 15 mg per kilogram per day every other day to create a high renin state. Blood pressure of conscious marmoset was measured on the third day after the last furosemide dose.
A conscious male marmoset weighing 340 g was placed into small restraining chair. Blood pressure was measured on the tail cuff method using pretismograph. Compound A of this invention was dissolved in dilute hydrochloric acid, and administered orally at 30 mg/kg by using a catheter.

`CC(C)OC(=O)C(O)[C@H](CC1CCCCC1)NC(=O)[C@H](Cc1c[nH]cn1)NC(=O)C(Cc1ccccc1F)Cc1ccccc1F` (mixture of isomers) [Compound A, (2RS, 3S)-3-{N-[Bis(2-fluorobenzyl)acetyl]-L-histidyl}amino-4-cyclohexyl-2-hydroxybutyric acid isopropyl ester]: the concentration for half-maximal inhibition (IC50) (commonly the concentration that gives 50% inhibition) in test [1] stood at 130 nM; in test [3], 9.4 nM. Also, the PRA in test [2] (60 minutes after administration) stood at 30.35 ng angiotensin I/ml/hr; in test [2] (180 minutes after administration), 18.89 ng angiotensin I/ml/hr; in test [2] (300 minutes after administration), 22.93 ng angiotensin I/ml/hr. In addition, the Blood pressure is 94.7 mmHg in test [4] (0.5 hours after administration); 86.2 mmHg in test [4] (1 hour after administration); 89.7 mmHg in test [4] (2 hours after administration); 86.2 mmHg in test [4] (3 hours after administration); 85.7 mmHg in test [4] (5 hours after administration).
